Test results: PubChem BioAssay AID248 (DTP/NCI, 2004)
“And” between values parts separate entries of the source, which are not always exact repeats. Equal entries are not always repeated. Inconclusive results and toxic doses are left out.

System: L1210 leukemia ip in BDF1 mice, survival T/C
Experiment: NCI In Vivo Anticancer Drug Screen. Data for tumor model L1210 Leukemia (intraperitoneal) in B6D2F1 (BDF1) mice
Conditions: endpoint: mean survival time, higher = longer survival
Method in brief: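 Tumor cells were implanted, animals were treated, and survival was followed. The result divides the treated measurement by the vehicle-control measurement.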

[1] = dose: 50.0 mg/kg/injection, schedule: Q01DX009 (ip), vehicle: Klucel (hydroxypropylcellulose) (HPC)
[2] = dose: 100.0 mg/kg/injection, schedule: Q01DX001 (ip), vehicle: carboxymethylcellulose (CMC)
[3] = dose: 100.0 mg/kg/injection, schedule: Q04DX003 (ip), vehicle: Klucel (hydroxypropylcellulose) (HPC)
[4] = dose: 200.0 mg/kg/injection, schedule: Q01DX001 (ip), vehicle: carboxymethylcellulose (CMC)
[5] = dose: 200.0 mg/kg/injection, schedule: Q04DX003 (ip), vehicle: Klucel (hydroxypropylcellulose) (HPC)
[6] = dose: 400.0 mg/kg/injection, schedule: Q01DX001 (ip), vehicle: carboxymethylcellulose (CMC)
[7] = dose: 400.0 mg/kg/injection, schedule: Q04DX003 (ip), vehicle: Klucel (hydroxypropylcellulose) (HPC)
[8] = dose: 50.0 mg/kg/injection, schedule: Q01DX001 (ip), vehicle: saline
[9] = dose: 100.0 mg/kg/injection, schedule: Q01DX001 (ip), vehicle: saline
[10] = dose: 200.0 mg/kg/injection, schedule: Q01DX001 (ip), vehicle: saline
[11] = dose: 100.0 mg/kg/injection, schedule: Q04DX003 (ip), vehicle: saline with Tween-80
[12] = dose: 200.0 mg/kg/injection, schedule: Q04DX003 (ip), vehicle: saline with Tween-80
[13] = dose: 400.0 mg/kg/injection, schedule: Q04DX003 (ip), vehicle: saline with Tween-80
[14] = dose: 100.0 mg/kg/injection, schedule: Q01DX009 (ip), vehicle: saline with Tween-80
[15] = dose: 200.0 mg/kg/injection, schedule: Q01DX009 (ip), vehicle: saline with Tween-80
[16] = dose: 400.0 mg/kg/injection, schedule: Q01DX009 (ip), vehicle: saline with Tween-80
[17] = dose: 400.0 mg/kg/injection, schedule: Q01DX001 (ip), vehicle: saline
[18] = dose: 100.0 mg/kg/injection, schedule: Q04DX003 (ip), vehicle: saline
[19] = dose: 200.0 mg/kg/injection, schedule: Q04DX003 (ip), vehicle: saline
[20] = dose: 100.0 mg/kg/injection, schedule: Q04DX002 (ip), vehicle: Klucel (hydroxypropylcellulose) (HPC)
[21] = dose: 200.0 mg/kg/injection, schedule: Q04DX002 (ip), vehicle: Klucel (hydroxypropylcellulose) (HPC)
[22] = dose: 400.0 mg/kg/injection, schedule: Q04DX002 (ip), vehicle: Klucel (hydroxypropylcellulose) (HPC)

CCOC(=O)c1[nH]cnc1/N=N/N(C)CCO
T/C [1]: 122 % of control
T/C (dose: 90.0 mg/kg/injection, schedule: Q01DX009 (ip), vehicle: Klucel (hydroxypropylcellulose) (HPC)): 116 % of control
T/C [2]: 115 % of control
T/C (dose: 100.0 mg/kg/injection, schedule: Q01DX009 (ip), vehicle: Klucel (hydroxypropylcellulose) (HPC)): 117 % of control
T/C [3]: 109 % of control and 115 % of control
T/C (dose: 175.0 mg/kg/injection, schedule: Q01DX009 (ip), vehicle: saline): 152 % of control
T/C [4]: 102 % of control
T/C [5]: 108 % of control and 121 % of control
T/C [6]: 107 % of control
T/C (dose: 400.0 mg/kg/injection, schedule: Q01DX009 (ip), vehicle: Klucel (hydroxypropylcellulose) (HPC)): 150 % of control and 154 % of control
T/C [7]: 124 % of control
T/C (dose: 600.0 mg/kg/injection, schedule: Q01DX009 (ip), vehicle: saline): 154 % of control

O=[N+]([O-])C=C([SH2+])[SH2+].O=[N+]([O-])C=C([SH2+])[SH2+].[Pt+2].c1ccc(C[P+](c2ccccc2)(c2ccccc2)c2ccccc2)cc1
T/C [8]: 95 % of control
T/C [9]: 110 % of control
T/C [10]: 96 % of control

NC(=O)CCNCCSC(=O)c1ccccc1
T/C [11]: 102 % of control
T/C [12]: 100 % of control
T/C [13]: 96 % of control

CCOC12c3c4cccc3C(=O)c3cccc(c31)C(=O)c1cccc(c12)C4=O
T/C [14]: 103 % of control
T/C [11]: 105 % of control
T/C [15]: 111 % of control
T/C [12]: 93 % of control
T/C [16]: 109 % of control
T/C [13]: 96 % of control

CCOC(=O)C1(C(=O)OCC)CCC(O)N1C(=O)c1cc2c(cc1[N+](=O)[O-])OCO2 (stereo not drawn)
T/C [3]: 91 % of control
T/C [5]: 99 % of control
T/C [7]: 100 % of control

O=C(CCCC(=O)NNC(=O)Nc1ccc(Cl)cc1)NNC(=O)Nc1ccc(Cl)cc1
T/C [8]: 93 % of control
T/C [9]: 96 % of control
T/C [10]: 100 % of control
T/C [17]: 100 % of control

Cc1ccc(S(=O)(=O)C[n+]2ccccc2)cc1
T/C (dose: 100.0 mg/kg/injection, schedule: Q04DX002 (ip), vehicle: saline with Tween-80): 98 % of control
T/C (dose: 200.0 mg/kg/injection, schedule: Q04DX002 (ip), vehicle: saline with Tween-80): 94 % of control

N=c1ncn(C2OC(CO[P+](N)(O)O)C(O)C2O)c2nc[nH]c12 (stereo not drawn)
T/C (dose: 12.5 mg/kg/injection, schedule: Q01DX005 (ip), vehicle: water): 110 % of control
T/C (dose: 25.0 mg/kg/injection, schedule: Q01DX005 (ip), vehicle: water): 106 % of control

COC(=O)C(N=O)C(=O)OC
T/C [9]: 104 % of control
T/C [10]: 109 % of control
T/C [17]: 106 % of control

O=C1CCCc2c1cc(C1CCCC1)c1ccccc21
T/C [2]: 92 % of control
T/C [4]: 95 % of control
T/C [6]: 98 % of control

CCCCNC(C)(C)C(SSSC(c1ccco1)C(C)(C)NCCCC)c1ccco1 (stereo not drawn)
T/C (dose: 50.0 mg/kg/injection, schedule: Q01DX009 (ip), vehicle: saline with Tween-80): 91 % of control
T/C [14]: 96 % of control
T/C [18]: 98 % of control
T/C [19]: 100 % of control

OCCCOc1ccc(Cl)cc1Cl
T/C (dose: 100.0 mg/kg/injection, schedule: Q04DX002 (sc), vehicle: olive oil, sesame oil, peanut oil): 100 % of control
T/C (dose: 200.0 mg/kg/injection, schedule: Q04DX002 (sc), vehicle: olive oil, sesame oil, peanut oil): 95 % of control
T/C (dose: 400.0 mg/kg/injection, schedule: Q04DX002 (sc), vehicle: olive oil, sesame oil, peanut oil): 110 % of control

Cc1[nH]c(=O)[nH]c(=O)c1CN1CCOCC1
T/C [11]: 102 % of control
T/C [12]: 113 % of control
T/C [13]: 100 % of control

Clc1ccc2c3c(cccc13)CC2
T/C (dose: 75.0 mg/kg/injection, schedule: Q01DX001 (ip), vehicle: carboxymethylcellulose (CMC)): 97 % of control
T/C (dose: 150.0 mg/kg/injection, schedule: Q01DX001 (ip), vehicle: carboxymethylcellulose (CMC)): 97 % of control
T/C (dose: 300.0 mg/kg/injection, schedule: Q01DX001 (ip), vehicle: carboxymethylcellulose (CMC)): 97 % of control

[O-][n+]1onc2ncccc21
T/C (dose: 25.0 mg/kg/injection, schedule: Q04DX003 (ip), vehicle: Klucel (hydroxypropylcellulose) (HPC)): 108 % of control
T/C (dose: 50.0 mg/kg/injection, schedule: Q04DX003 (ip), vehicle: Klucel (hydroxypropylcellulose) (HPC)): 94 % of control
T/C [3]: 100 % of control and 102 % of control

NC(N)=NN=C1c2ccccc2-c2ccccc21
T/C (dose: 1.0 mg/kg/injection, schedule: Q01DX Z (ip), vehicle: methylcellulose (MC)): 107 % of control
T/C (dose: 2.0 mg/kg/injection, schedule: Q01DX Z (ip), vehicle: methylcellulose (MC)): 102 % of control
T/C (dose: 4.0 mg/kg/injection, schedule: Q01DX Z (ip), vehicle: methylcellulose (MC)): 103 % of control
T/C (dose: 4.0 mg/kg/injection, schedule: Q01DX Z (oral), vehicle: methylcellulose (MC)): 95 % of control
T/C (dose: 8.0 mg/kg/injection, schedule: Q01DX Z (ip), vehicle: methylcellulose (MC)): 107 % of control
T/C (dose: 16.0 mg/kg/injection, schedule: Q01DX Z (oral), vehicle: methylcellulose (MC)): 107 % of control

c1ccc(-c2c3ccccc3c(-c3ccccc3)c3cc4ccccc4cc23)cc1
T/C [20]: 95 % of control
T/C [21]: 98 % of control
T/C [22]: 92 % of control

CCOC(=O)/C=C/Oc1cc(Cl)c(Cl)cc1Cl
T/C [14]: 110 % of control
T/C [15]: 92 % of control
T/C [16]: 93 % of control

C=CCc1ccc(O)c(OC)c1
T/C (dose: 100.0 mg/kg/injection, schedule: Q04DX002 (ip), vehicle: saline + alcohol): 108 % of control
T/C (dose: 200.0 mg/kg/injection, schedule: Q04DX002 (ip), vehicle: saline + alcohol): 101 % of control
T/C (dose: 400.0 mg/kg/injection, schedule: Q04DX002 (ip), vehicle: saline + alcohol): 97 % of control

COc1ccc(C(=O)Nc2c(C)cccc2C)cc1
T/C (dose: 100.0 mg/kg/injection, schedule: Q01DX009 (ip), vehicle: carboxymethylcellulose (CMC)): 94 % of control and 90 % of control
T/C [20]: 112 % of control
T/C (dose: 100.0 mg/kg/injection, schedule: Q04DX002 (ip), vehicle: carboxymethylcellulose (CMC)): 97 % of control and 108 % of control
T/C (dose: 100.0 mg/kg/injection, schedule: Q04DX003 (ip), vehicle: carboxymethylcellulose (CMC)): 104 % of control
T/C (dose: 200.0 mg/kg/injection, schedule: Q01DX009 (ip), vehicle: carboxymethylcellulose (CMC)): 94 % of control and 92 % of control
T/C [21]: 108 % of control
T/C (dose: 200.0 mg/kg/injection, schedule: Q04DX002 (ip), vehicle: carboxymethylcellulose (CMC)): 100 % of control and 101 % of control
T/C (dose: 200.0 mg/kg/injection, schedule: Q04DX003 (ip), vehicle: carboxymethylcellulose (CMC)): 106 % of control
T/C (dose: 400.0 mg/kg/injection, schedule: Q01DX009 (ip), vehicle: carboxymethylcellulose (CMC)): 94 % of control and 97 % of control
T/C [22]: 108 % of control
T/C (dose: 400.0 mg/kg/injection, schedule: Q04DX002 (ip), vehicle: carboxymethylcellulose (CMC)): 103 % of control
T/C (dose: 400.0 mg/kg/injection, schedule: Q04DX003 (ip), vehicle: carboxymethylcellulose (CMC)): 106 % of control

Nc1ccc(NC(=O)Nc2ccccc2)cc1
T/C [20]: 101 % of control
T/C [21]: 90 % of control
T/C [22]: 101 % of control

CC(=O)c1csc2ccccc12
T/C (dose: 12.5 mg/kg/injection, schedule: Q01DX009 (ip), vehicle: Klucel (hydroxypropylcellulose) (HPC)): 106 % of control
T/C (dose: 25.0 mg/kg/injection, schedule: Q01DX009 (ip), vehicle: Klucel (hydroxypropylcellulose) (HPC)): 101 % of control
T/C [1]: 106 % of control

CC(=O)Nc1ccc(NC(=O)Nc2cccc(F)c2)cc1
T/C [14]: 92 % of control
T/C [15]: 89 % of control
T/C [16]: 92 % of control

Cc1cccc(/C=C2/SC(=S)N(c3ccccc3)C2=O)c1
T/C [9]: 100 % of control
T/C [10]: 98 % of control
T/C [17]: 105 % of control

CN(C)CC1C(O)C2CCN1CC2 (stereo not drawn)
T/C [18]: 103 % of control
T/C [19]: 103 % of control
